# According to patent US5473103A, “Biopolymers derived from hydrolyzable diacid fats” (Yissum Research Development Co. of the Hebrew University of …, priority 1993, dated 1995):
# Where a name gives a salt, the structure may show the parent alone.
# Tested on: esterase from porcine liver
# Test: in vitro enzymatic degradation by esterase
# Assay type: in vitro ADME
# Settings: 200 mg monomer, 50 units esterase, 24 hours, 37° C., 1H NMR
# Procedure: The enzymatic degradation of these new monomers were compared to those of the oligomerized fatty acids. The monomers RAM, HSAM, HSAS, FAD, and FAT (200 mg) were mixed in a solution containing esterase (2 ml, containing 50 units of esterase from porcine liver, Sigma Chemical Company, St. Louis, Missouri) and were incubated for 24 hours at 37° C. The monomers or their degradation products were extracted with chloroform and analyzed by ^1 H NMR. […] The RAM, and HSAS monomers contained about 10% ricinoleic acid or 12-hydroxy stearic acid, respectively.
row,Compound,ricinoleic acid or 12-hydroxy stearic acid formed
1,"CCCCCCC(CCCCCCCCCCC(=O)O)OC(=O)CCC(=O)O (centres unmarked) [HSAS, 12-hydroxy stearic acid succinate]",about 10%
2,"CCCCCC[C@H](C/C=C\CCCCCCCC(=O)O)OC(=O)/C=C\C(=O)O [RAM, ricinoleic acid maleate]",about 10%
